Data: patent publication US20070248705A1, “Agents for Activating the Transcription Factor Nrf2 and Foods Having Such Function” (KIRIN BEER KABUSHIKI KAISHA, priority 2004, published 2007)

Experiments:
Assay type in all cases: cell-based, mouse
Nrf2 = Nrf2 activation in ARE reporter assay system, RAW264.7; settings: RAW264.7, 5 μM, 24 hours
Method: To construct the reporter plasmid pGL3-mARE3A, a double-stranded oligo DNA with 3 repeats of mouse NQO1-derived ARE (antioxidant response element) to which Nrf2 is believed to bind was constructed and inserted into the MluI-NheI site of the firefly luciferase reporter vector pGL3-promoter vector (available from Promega).
The double-stranded oligo DNA containing AREs was prepared by chemically synthesizing two single-stranded oligo DNAs, 5 ′-[…] G-3′ (SEQ ID NO: 1) and 5′-[…]-3′(SEQ ID NO: 2), and annealing them. Further, DNA sequence analysis confirmed that the product obtained was the plasmid of interest. Next, a mouse macrophage cell line RAW264.7 (available from American Type Culture Collection) was seeded on a 12-well plate (4×10^5 cells/well), 0.8 ml of an RPMI1640 medium (Invitrogen) supplemented with 10% fetal bovine serum (HyClone) and penicillin-streptomycin (100 units/ml and 100 μg/ml, respectively; Sigma) was added, and the plate was incubated at 37° C. in an atmosphere of 5% CO2 overnight. […] The cells were broken using a Dual-Luciferase reporter assay system (Promega) and then firefly luciferase activity and renilla luciferase activity were measured using a luminometer (Luminous CT-9000D, Dia-Iatron). […]

[1] = tested on: NAD(P)H:quinone oxidoreductase (NQO1); assay: Expression of genes controlled by Nrf2 in RAW264.7: NQO1; settings: RAW264.7, 25 μM, 20 hours
Method: A mouse macrophage cell line RAW264.7 was seeded on a φ60 mm dish (9×10^5 cells), 2 ml of a D-MEM medium (Invitrogen) supplemented with 10% fetal bovine serum (HyClone) and penicillin-streptomycin (100 units/ml and 100 μg/ml, respectively; Sigma) was added, and the dish was incubated at 37° C. in an atmosphere of 5% CO2 for 2 days. The medium was replaced with a fresh medium containing individual samples and incubation was continued for another 20 hours. Then, the total RNA was prepared using TRIzol (Invitrogen) and purified using a RNeasy Mini kit (Qiagen) and an RNase-free DNase set (Qiagen). Further, cDNA was synthesized from 5 μg of the purified total RNA using a Thermo Script RT-PCR system (Invitrogen), and the amount of mRNA expression of various genes was determined using a FastStart DNA Master SYBR Green I kit (Roche) and a Light Cycler (Roche).
The amount of expression of the various genes was corrected by the amount of expression of the housekeeping gene PO and calculated as a relative expression level (n=2, mean±standard deviation). […]

TNF-α = assay: Suppression of TNF-α production by macrophages (TPA and IFN-γ); settings: RAW264.7, TPA 400 nM and IFN-γ 10 units/ml, 5, 10, 20, and 40 μM, 24 hours
Method: A mouse macrophage cell line RAW264.7 (4×10^4 cells/well) was seeded on a 96-well plate, […] of a D-MEM medium (Invitrogen) containing each sample, 10% fetal bovine serum (HyClone), and penicillin-streptomycin (100 units/ml and 100 μg/ml, respectively; Sigma) was added, and the plate was incubated at 37° C. in an atmosphere of 5% CO2 for 4 hours. Then 150 μl of a medium containing TPA (phorbol 12-tetradecanoate 13-acetate, Sigma), mouse IFN-γ (interferon-γ, eBioscience), and each sample was added and incubation was carried out for 24 hours. TPA and IFN-γ were added at a final concentration of 400 nM and 10 units/ml, respectively. As samples, isomerized hop extract was added at a concentration of 5, 10, 20, and 30 μ/ml and isohumulone (IH(F)) and isohumulone (IcH(G)) were added individually at a concentration of 5, 10, 20, and 40 μM.
After completing incubation, the amount of TNF-α in the culture fluid was measured using a mouse TNF-α ELISA kit(eBioscience). The amount of TNF-α was expressed as a relative value by setting the value for the control as 100% (n=3, mean±standard variation). As a positive control, 15dPGJ2 (Cayman Chemical) was used.

## CC(C)=CCC(=O)C1(O)C(O)=C(C(=O)CC(C)C)C(=O)C1CC=C(C)C (stereo not drawn) [IH (F), isohumulone]
Nrf2
  Nrf2 activation activity (relative luciferase activity): confirmed the activation
[1]
  expression of NQO1: augmented the expression
TNF-α
  TNF-α production: concentration-dependently suppressed
